This is an account of results in patent US9422566B2, “Gene cluster for biosynthesis of griselimycin and methylgriselimycin” (SANOFI, priority 2011, dated 2016).

Holding throughout (format): biochemical, Streptomyces DSM 22643
Holding throughout (details): in vitro ATP-[32P]PPi exchange, amino acid 5 mM, 30° C., nine substrates tested

The subject of assay [1] is A domain of module 2 (A2) of NRPS-1. The assay can be described thus: ATP-PPi exchange assay, substrate specificity of A domain A2. The method, then:
(§1) In order to gain insight into the specificity of the A domains of modules 2, 5 and 8, the domains were recombinantly produced and their specificity analysed via an ATP/PPi exchange assay in vitro.
(§2) In order to directly investigate A domain substrate specificity, we aimed to express A domains A2, A5 and A8 from the griselimycin pathway as N-terminally His6-tagged proteins from pET28b (+). […]
(§3) Substrate specificity of the 3 purified adenylation domains was evaluated using the established ATP-PPi exchange assay (Mootz and Marahiel. 1997, Thomas et al., 2002). […] As a control, each protein was incubated in the absence of added amino acid, to determine the radioactivity background reaction. […]
(§4) To determine substrate specificity, ATP-[^32P]PPi reactions (100 μl) containing Tris-HCl (pH 7.5, 75 mM), MgCl2 (10 mM), […] (5 mM), amino acid (5 mM), and protein (2 μg) were performed at 30° C. ^32P-tetrasodium pyrophosphate was obtained from Perkin Elmer (NEN #NEX019). […] The charcoal was pelleted by centrifugation prior to being washed twice with the washing solution 0.1 M Na4P2O7 and 0.35 M perchloric acid in H2O), resuspended in H2O (500 μl), and counted by liquid scintillation (Beckman LS6500).

In assay [2] the test system is A domain of module 8 (A8) of NRPS-2. As to the kind of experiment: ATP-PPi exchange assay, substrate specificity of A domain A8. The method, then: as §1, §2, §3, §4
Assay [3] concerns A domain of module 5 (A5) of NRPS-1. The assay can be described thus: ATP-PPi exchange assay, substrate specificity of A domain A5. The protocol: as §1, §2, §3, §4

As to `C[C@H]1CN[C@H](C(=O)O)C1` [(2S,4R)-4-methylproline], in assay [1], the “specificity of the domain A2 for the substrate” value is listed as “highest”. Moreover, in assay [2], the “specificity of the domain A8 for the substrate” value is “highest”. Further, the “specificity of the domain A5 for the substrate” value in assay [3] is “highest”.
Consider `O=C(O)[C@@H]1CCCN1` [L-proline], for which, in assay [2], the “specificity of the domain A8 for the substrate” value is recorded as “high specificity”.
